According to PubChem BioAssay (NCI):
Several values for one entry are separate records, joined by “and”; a condition that tells them apart may be missing. Identical values can stand only once.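 All cell lines were grown in 96-well plates and treated with compound for 48 hours. The concentration for 50% growth inhibition is given as GI50. At the TGI there is no net growth.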

Assays:
Experiment in all cases: NCI tumour cell line growth inhibition, 48 h
[1] = tested on: 786-0 renal
[2] = tested on: A498 renal
[3] = tested on: A549 NSCLC
[4] = tested on: BT-549 breast
[5] = tested on: CAKI-1 renal
[6] = tested on: CCRF-CEM leukemia
[7] = tested on: COLO 205 colon
[8] = tested on: DLD-1 colon
[9] = tested on: DMS 114 small cell lung
[10] = tested on: DMS 273 small cell lung
[11] = tested on: DU-145 prostate
[12] = tested on: HCC-2998 colon
[13] = tested on: HCT-116 colon
[14] = tested on: HCT-15 colon
[15] = tested on: HL-60(TB) leukemia
[16] = tested on: HOP-18 NSCLC
[17] = tested on: HOP-62 NSCLC
[18] = tested on: HOP-92 NSCLC
[19] = tested on: HS 578T breast
[20] = tested on: HT29 colon
[21] = tested on: IGROV1 ovarian
[22] = tested on: K-562 leukemia
[23] = tested on: KM12 colon
[24] = tested on: KM20L2 colon
[25] = tested on: LOX IMVI melanoma
[26] = tested on: LXFL 529 NSCLC
[27] = tested on: M14 melanoma
[28] = tested on: M19-MEL melanoma
[29] = tested on: MALME-3M melanoma
[30] = tested on: MCF7 breast
[31] = tested on: MDA-MB-231 breast
[32] = tested on: MDA-MB-435
[33] = tested on: MDA-N
[34] = tested on: MOLT-4 leukemia
[35] = tested on: NCI-H226 lung
[36] = tested on: NCI-H23 lung
[37] = tested on: NCI-H460 lung
[38] = tested on: NCI-H522 lung
[39] = tested on: NCI/ADR-RES ovarian
[40] = tested on: OVCAR-3 ovarian
[41] = tested on: OVCAR-4 ovarian
[42] = tested on: OVCAR-5 ovarian
[43] = tested on: OVCAR-8 ovarian
[44] = tested on: P388 leukemia
[45] = tested on: P388/ADR leukemia
[46] = tested on: PC-3 prostate
[47] = tested on: RPMI-8226 leukemia
[48] = tested on: RXF 393 renal
[49] = tested on: RXF-631 renal
[50] = tested on: SF-268 CNS
[51] = tested on: SF-295 CNS
[52] = tested on: SK-MEL-2 melanoma
[53] = tested on: SK-MEL-28 melanoma
[54] = tested on: SK-MEL-5 melanoma
[55] = tested on: SK-OV-3 ovarian
[56] = tested on: SN12C renal
[57] = tested on: SN12K1 renal
[58] = tested on: SNB-19 CNS
[59] = tested on: SNB-75 CNS
[60] = tested on: SNB-78 CNS
[61] = tested on: SR leukemia
[62] = tested on: SW-620 colon
[63] = tested on: T-47D breast
[64] = tested on: TK-10 renal
[65] = tested on: U251 CNS
[66] = tested on: UACC-257 melanoma
[67] = tested on: UACC-62 melanoma
[68] = tested on: UO-31 renal
[69] = tested on: XF 498 CNS
[70] = tested on: ACHN renal
[71] = tested on: EKVX NSCLC
[72] = tested on: SF-539 CNS

SMILES: O=C1N[C@H]2[C@H](O)[C@H](O)[C@@H](O)[C@H](O)[C@@H]2c2cc3c(c(O)c21)OCO3
- GI50 [1]: 0.324 µM and 0.0396 µM
- GI50 [2]: 0.23 µM and 0.796 µM
- GI50 [3]: 0.407 µM and 3.51 µM
- GI50 [4]: 0.0187 µM
- TGI [4]: 0.0684 µM and 0.142 µM
- GI50 [5]: 0.682 µM
- GI50 [6]: 0.137 µM
- TGI [6]: 0.767 µM and 0.485 µM
- GI50 [7]: 12.8 µM
- GI50 [8]: 0.282 µM and 1.94 µM
- TGI [8]: 0.422 µM
- GI50 [9]: 0.241 µM and 0.604 µM
- GI50 [10]: 3.09 µM
- TGI [10]: 0.466 µM
- GI50 [11]: 0.0101 µM
- TGI [11]: 0.0963 µM and 0.102 µM
- GI50 [12]: 0.0618 µM
- TGI [12]: 0.279 µM and 0.148 µM
- GI50 [13]: 0.129 µM and 0.253 µM
- TGI [13]: 0.682 µM and 1.42 µM and 0.144 µM
- GI50 [14]: 0.462 µM
- GI50 [15]: 0.194 µM and 0.0783 µM
- TGI [15]: 0.331 µM and 0.0744 µM
- GI50 [16]: 0.377 µM and 1.99 µM
- TGI [16]: 0.653 µM
- GI50 [17]: 0.246 µM and 0.0935 µM
- TGI [17]: 0.93 µM and 0.532 µM and 0.182 µM
- GI50 [18]: 0.333 µM
- GI50 [19]: 0.021 µM and 0.0403 µM
- TGI [19]: 0.0941 µM and 0.0978 µM
- GI50 [20]: 0.3 µM and 0.36 µM
- TGI [20]: 3.84 µM and 0.44 µM
- GI50 [21]: 0.349 µM and 0.757 µM
- GI50 [22]: 0.216 µM and 0.214 µM
- GI50 [23]: 0.234 µM
- TGI [23]: 2.8 µM and 0.41 µM
- GI50 [24]: 0.35 µM and 1.76 µM
- TGI [24]: 3.06 µM
- GI50 [25]: 0.147 µM and 0.196 µM
- GI50 [26]: 0.248 µM
- TGI [26]: 4.13 µM
- GI50 [27]: 0.229 µM and 0.0346 µM
- GI50 [28]: 0.276 µM and 0.463 µM
- GI50 [29]: 0.266 µM and 0.275 µM
- GI50 [30]: 0.0208 µM
- TGI [31]: 0.091 µM
- GI50 [32]: 0.0249 µM
- TGI [32]: 1.3 µM and 0.14 µM
- GI50 [33]: 0.025 µM
- TGI [33]: 0.185 µM and 0.128 µM
- GI50 [34]: 0.196 µM and 0.575 µM
- GI50 [35]: 0.273 µM and 0.365 µM
- TGI [35]: 1.59 µM and 0.195 µM
- GI50 [36]: 0.241 µM and 0.375 µM
- TGI [36]: 0.712 µM and 2.18 µM and 0.677 µM
- GI50 [37]: 0.234 µM and 0.084 µM
- TGI [37]: 0.652 µM and 0.448 µM
- GI50 [38]: 0.143 µM
- TGI [38]: 0.886 µM and 0.141 µM
- GI50 [39]: 0.0241 µM
- TGI [39]: 0.189 µM and 0.523 µM
- GI50 [40]: 0.275 µM and 0.347 µM
- GI50 [41]: 0.189 µM and 0.373 µM
- GI50 [42]: 0.657 µM and 1.16 µM
- TGI [42]: 9.37 µM and 1.22 µM
- GI50 [43]: 0.231 µM and 0.225 µM
- TGI [43]: 1.89 µM and 0.195 µM
- TGI [44]: 0.164 µM
- TGI [45]: 0.21 µM
- GI50 [46]: 0.0381 µM and 0.0661 µM
- TGI [46]: 0.787 µM and 0.48 µM
- GI50 [47]: 0.224 µM and 0.842 µM
- GI50 [48]: 0.148 µM and 0.423 µM
- GI50 [49]: 0.288 µM
- TGI [49]: 4.33 µM
- GI50 [50]: 0.269 µM and 1.36 µM
- GI50 [51]: 0.346 µM and 0.495 µM
- TGI [51]: 3.51 µM and 0.352 µM
- GI50 [52]: 0.266 µM
- GI50 [53]: 0.308 µM and 0.382 µM
- GI50 [54]: 0.127 µM
- GI50 [55]: 0.3 µM and 0.33 µM
- GI50 [56]: 0.206 µM and 0.246 µM
- TGI [56]: 2.11 µM and 0.28 µM
- TGI [57]: 0.36 µM
- GI50 [58]: 0.172 µM and 0.125 µM
- TGI [58]: 0.939 µM and 0.197 µM
- GI50 [59]: 0.257 µM and 1.14 µM
- GI50 [60]: 0.248 µM and 2.04 µM
- GI50 [61]: 0.0248 µM
- TGI [61]: 0.511 µM and 3.31 µM
- GI50 [62]: 0.239 µM and 0.25 µM
- TGI [63]: 0.155 µM
- GI50 [64]: 0.0561 µM
- TGI [64]: 3.55 µM and 1.69 µM
- GI50 [65]: 0.156 µM and 0.187 µM
- GI50 [66]: 0.314 µM and 0.339 µM
- TGI [66]: 2.4 µM and 0.334 µM
- GI50 [67]: 0.246 µM and 0.412 µM
- GI50 [68]: 0.333 µM and 0.522 µM
- TGI [68]: 2.78 µM and 0.398 µM
- GI50 [69]: 0.25 µM and 1.24 µM

SMILES: C[C@@](O)(/C=C/[C@H]1CC=CC(=O)O1)[C@@H](C[C@@H](O)\C=C/C=C\C=C\CO)OP(=O)(O)O
- TGI [1]: 20.2 µM
- GI50 [2]: 40.2 µM
- TGI [2]: 83.8 µM and 60.3 µM
- GI50 [3]: 13.1 µM
- TGI [3]: 49.6 µM and 57 µM
- TGI [70]: 20.4 µM
- TGI [4]: 36.6 µM
- TGI [5]: 4.66 µM
- GI50 [6]: 3.52 µM
- TGI [6]: 335 µM and 34.1 µM
- TGI [7]: 18.2 µM and 18.7 µM
- TGI [8]: 95.9 µM
- TGI [9]: 82.6 µM
- TGI [10]: 167 µM
- TGI [11]: 32.5 µM
- GI50 [71]: 14.7 µM
- TGI [71]: 65.6 µM and 49.1 µM
- TGI [12]: 22.3 µM
- GI50 [13]: 4.1 µM
- TGI [13]: 8.87 µM and 11 µM
- GI50 [14]: 11.4 µM
- TGI [14]: 55.9 µM and 79.4 µM
- TGI [15]: 2.99 µM
- GI50 [16]: 15.9 µM and 42.2 µM
- TGI [16]: 28.5 µM and 127 µM
- GI50 [17]: 10.1 µM
- TGI [17]: 29.5 µM and 12.1 µM
- TGI [18]: 10.6 µM
- TGI [19]: 22.6 µM
- TGI [20]: 6.33 µM
- TGI [21]: 15.4 µM
- GI50 [22]: 1.39 µM
- TGI [22]: 363 µM and 84.6 µM
- TGI [23]: 32.2 µM and 37.8 µM
- GI50 [24]: 1.32 µM
- TGI [24]: 6.55 µM and 3.17 µM
- GI50 [25]: 4.32 µM
- TGI [25]: 10.1 µM and 6.8 µM
- TGI [27]: 2.69 µM
- TGI [28]: 25.6 µM
- GI50 [29]: 6.94 µM
- TGI [29]: 16 µM and 14.3 µM
- GI50 [30]: 5.01 µM
- TGI [30]: 13.9 µM and 50.4 µM
- TGI [31]: 138 µM
- TGI [32]: 11.7 µM
- TGI [33]: 8.08 µM
- GI50 [34]: 13.4 µM and 3.71 µM
- TGI [35]: 18.7 µM
- GI50 [36]: 15 µM
- TGI [36]: 91.6 µM and 68.3 µM
- GI50 [37]: 14.2 µM
- TGI [37]: 63.6 µM and 78.5 µM
- TGI [38]: 66.1 µM and 60.1 µM
- TGI [39]: 143 µM
- GI50 [40]: 12.1 µM and 2.94 µM
- TGI [40]: 27.7 µM and 12.7 µM
- TGI [41]: 25.5 µM
- GI50 [42]: 11.5 µM
- TGI [42]: 19.1 µM and 15 µM
- GI50 [43]: 12.3 µM
- TGI [43]: 90.7 µM and 86.5 µM
- GI50 [44]: 1.41 µM and 0.567 µM
- GI50 [45]: 0.963 µM and 0.989 µM
- TGI [46]: 12.4 µM
- TGI [47]: 8.5 µM
- TGI [48]: 23.8 µM and 13 µM
- GI50 [50]: 12.2 µM
- TGI [50]: 83.2 µM and 99.1 µM
- TGI [51]: 13.4 µM
- GI50 [72]: 5.28 µM
- TGI [72]: 11.5 µM and 23 µM
- GI50 [52]: 19.8 µM
- TGI [52]: 65.2 µM and 42.4 µM
- GI50 [53]: 8.69 µM
- TGI [53]: 38.8 µM and 25.3 µM
- GI50 [54]: 7.89 µM
- TGI [54]: 21.8 µM and 27 µM
- TGI [55]: 31.4 µM
- TGI [56]: 80.5 µM
- GI50 [57]: 2.69 µM
- TGI [57]: 30.7 µM and 19.3 µM
- GI50 [58]: 20.7 µM
- TGI [58]: 92.6 µM and 184 µM
- GI50 [59]: 315 µM and 39.4 µM
- GI50 [60]: 11.3 µM
- TGI [60]: 60.8 µM and > 58.8 µM
- TGI [61]: 41.6 µM
- TGI [62]: 70.9 µM
- TGI [63]: 161 µM
- TGI [64]: 46.6 µM
- GI50 [65]: 13.3 µM
- TGI [65]: 49 µM and 55.6 µM
- GI50 [66]: 7.2 µM
- TGI [66]: 17.6 µM and 14.6 µM
- GI50 [67]: 6.51 µM
- TGI [67]: 28 µM and 11 µM
- GI50 [68]: 9.39 µM
- TGI [68]: 19.5 µM and 22 µM
- TGI [69]: 101 µM and 113 µM
